Measurements: ChEMBL document CHEMBL1147026, “Synthesis of pseudopeptides based L-tryptophan as a potential antimicrobial agent” (Bioorg Med Chem Lett, 2007)
≈ marks a conversion by molar mass, not a printed value. Calls of active or inactive are those of the source. The rule behind the calls is not given here.

Key:
[1] = system: Cryptococcus neoformans; assay: Antifungal activity against Cryptococcus neoformans ATCC 90112 upto 128 ug/mL after 48 to 72 hrs by broth microdilution method; type: functional, organism-based
[2] = system: Candida albicans; assay: Antifungal activity against Candida albicans CMAH 0511 after 48 to 72 hrs by broth microdilution method; type: functional
[3] = system: Escherichia coli; assay: Antimicrobial activity against Escherichia coli ATCC 25922 upto 128 ug/mL after 24 hrs by two fold dilution method; type: functional, organism-based
[4] = system: Candida albicans; assay: Antifungal activity against Candida albicans CMAM 0594 upto 128 ug/mL after 48 to 72 hrs by broth microdilution method; type: functional, organism-based
[5] = system: Klebsiella aerogenes; assay: Antibacterial activity against Enterobacter aerogenes CMCC(B) 45103 upto 128 ug/mL after 24 hrs by two fold dilution method; type: functional, organism-based
[6] = system: Staphylococcus aureus; assay: Antibacterial activity against methicillin-resistant Staphylococcus aureus CMAH 0430 upto 128 ug/mL after 24 hrs by two fold dilution method; type: functional, organism-based
[7] = system: Micrococcus luteus; assay: Antimicrobial activity against Micrococcus luteus CMCC(B) 28001 upto 128 ug/mL after 24 hrs by two fold dilution method; type: functional, organism-based
[8] = system: Staphylococcus aureus; assay: Antibacterial activity against methicillin-susceptible Staphylococcus aureus ATCC 25923 after 24 hrs by two fold dilution method; type: functional; conditions: ATCC 25923, 24 h
[9] = system: Candida albicans; assay: Antifungal activity against Candida albicans ATCC 10231 after 48 to 72 hrs by broth microdilution method; type: functional
[10] = system: Bacillus subtilis; assay: Antimicrobial activity against Bacillus subtilis after 24 hrs by two fold dilution method; type: functional
[11] = system: Candida albicans; assay: Antifungal activity against Candida albicans CMAH 0527 after 48 to 72 hrs by broth microdilution method; type: functional
[12] = system: Pseudomonas aeruginosa; assay: Antimicrobial activity against Pseudomonas aeruginosa ATCC 27853 upto 128 ug/mL after 24 hrs by two fold dilution method; type: functional, organism-based
[13] = system: Staphylococcus aureus; assay: Antibacterial activity against methicillin-resistant Staphylococcus aureus CMAH 0515 upto 128 ug/mL after 24 hrs by two fold dilution method; type: functional, organism-based
[14] = system: Candida albicans; assay: Antifungal activity against Candida albicans CMAM 0592 upto 128 ug/mL after 48 to 72 hrs by broth microdilution method; type: functional, organism-based
[15] = system: Staphylococcus aureus; assay: Antibacterial activity against methicillin-resistant Staphylococcus aureus CMAH 0504 upto 128 ug/mL by two fold dilution method; type: functional, organism-based
[16] = system: Candida albicans; assay: Antifungal activity against Candida albicans CMAH 0572 upto 128 ug/mL after 48 to 72 hrs by broth microdilution method; type: functional, organism-based
[17] = system: Candida albicans; assay: Antifungal activity against Candida albicans CMAH 0501 after 48 to 72 hrs by broth microdilution method; type: functional
[18] = system: Candida albicans; assay: Antifungal activity against fluconazole-resistant Candida albicans CMAH 0520 after 48 to 72 hrs by broth microdilution method; type: functional
[19] = system: Proteus vulgaris; assay: Antimicrobial activity against Proteus vulgaris CMCC(B) 49001 upto 128 ug/mL after 24 hrs by two fold dilution method; type: functional, organism-based
[20] = system: Candida albicans; assay: Antifungal activity against Candida albicans CMAH 0507 after 48 to 72 hrs by broth microdilution method; type: functional
[21] = system: Candida albicans; assay: Antifungal activity against Candida albicans CMAM 0577 upto 128 ug/mL after 48 to 72 hrs by broth microdilution method; type: functional, organism-based
[22] = system: Candida albicans; assay: Antifungal activity against fluconazole-resistant Candida albicans CMAM 0597 upto 128 ug/mL after 48 to 72 hrs by broth microdilution method; type: functional, organism-based
[23] = system: Candida albicans; assay: Antifungal activity against Candida albicans CMAH 0503 after 48 to 72 hrs by broth microdilution method; type: functional
[24] = system: Aspergillus sp.; assay: Antifungal activity against Aspergillus sp. after 48 to 72 hrs by broth microdilution method; type: functional; conditions: Aspergillus sp.
[25] = system: Saccharomyces cerevisiae; assay: Antimicrobial activity against Saccharomyces cerevisiae upto 128 ug/mL after 48 to 72 hrs by broth microdilution method; type: functional, organism-based
[26] = system: Rhodotorula glutinis; assay: Antimicrobial activity against Rhodotorula glutinis SYM 2209 after 48 to 72 hrs by broth microdilution method; type: functional

SMILES: COC(=O)[C@H](Cc1c[nH]c2ccccc12)NC(=O)c1cccc(C(=O)N[C@@H](Cc2c[nH]c3ccccc23)C(=O)OC)n1
- Activity [1]: inactive
- MBC [2]: 128 µg/mL (≈ 226 µM)
- MIC [2]: 32 µg/mL (≈ 56.4 µM)
- Activity [3]: inactive
- Activity [4]: inactive
- Activity [5]: inactive
- Activity [6]: inactive
- Activity [7]: inactive
- MIC [8]: 64 µg/mL (≈ 113 µM)
- MFC [9]: 128 µg/mL (≈ 226 µM)
- MIC [9]: 32 µg/mL (≈ 56.4 µM)
- MBC [10]: > 128 µg/mL
- MIC [10]: 32 µg/mL (≈ 56.4 µM)
- MBC [11]: 128 µg/mL (≈ 226 µM)
- MIC [11]: 32 µg/mL (≈ 56.4 µM)
- Activity [12]: inactive
- Activity [13]: inactive
- Activity [14]: inactive
- Activity [15]: inactive
- Activity [16]: inactive
- MFC [17]: 128 µg/mL (≈ 226 µM)
- MIC [17]: 32 µg/mL (≈ 56.4 µM)
- MIC [18]: 64 µg/mL (≈ 113 µM)
- Activity [19]: inactive
- MIC [20]: 64 µg/mL (≈ 113 µM)
- Activity [21]: inactive
- Activity [22]: inactive
- MFC [23]: 128 µg/mL (≈ 226 µM)
- MIC [23]: 32 µg/mL (≈ 56.4 µM)
- MIC50 [24]: > 128 µg/mL
- MIC90 [24]: > 128 µg/mL
- Activity [25]: inactive
- MFC [26]: 128 µg/mL (≈ 226 µM)
- MIC [26]: 32 µg/mL (≈ 56.4 µM)
